Patent US20250243203A1, “NICOTINAMIDE- AND BENZAMIDE-BASED COMPOUNDS, CONJUGATES, AND COMPOSITIONS AS INHIBITORS OF TRANSLATIONAL- AND TRANSCRIPTIONAL-RELATED KINASES” (PURDUE RESEARCH FOUNDATION, priority 2022, published 2025)
Where two headings read alike, the source gives them in different places.

Legend:
[1] = biological target: T1, AXL receptor tyrosine kinase (AXL) (Homo sapiens, UniProt P30530); test: KINOMEscan competition binding assay (Eurofins DiscoverX), AXL
T1 construct: purchased Eurofins DiscoverX (KINOMEscan service)
T1 sequence (P30530 26-894): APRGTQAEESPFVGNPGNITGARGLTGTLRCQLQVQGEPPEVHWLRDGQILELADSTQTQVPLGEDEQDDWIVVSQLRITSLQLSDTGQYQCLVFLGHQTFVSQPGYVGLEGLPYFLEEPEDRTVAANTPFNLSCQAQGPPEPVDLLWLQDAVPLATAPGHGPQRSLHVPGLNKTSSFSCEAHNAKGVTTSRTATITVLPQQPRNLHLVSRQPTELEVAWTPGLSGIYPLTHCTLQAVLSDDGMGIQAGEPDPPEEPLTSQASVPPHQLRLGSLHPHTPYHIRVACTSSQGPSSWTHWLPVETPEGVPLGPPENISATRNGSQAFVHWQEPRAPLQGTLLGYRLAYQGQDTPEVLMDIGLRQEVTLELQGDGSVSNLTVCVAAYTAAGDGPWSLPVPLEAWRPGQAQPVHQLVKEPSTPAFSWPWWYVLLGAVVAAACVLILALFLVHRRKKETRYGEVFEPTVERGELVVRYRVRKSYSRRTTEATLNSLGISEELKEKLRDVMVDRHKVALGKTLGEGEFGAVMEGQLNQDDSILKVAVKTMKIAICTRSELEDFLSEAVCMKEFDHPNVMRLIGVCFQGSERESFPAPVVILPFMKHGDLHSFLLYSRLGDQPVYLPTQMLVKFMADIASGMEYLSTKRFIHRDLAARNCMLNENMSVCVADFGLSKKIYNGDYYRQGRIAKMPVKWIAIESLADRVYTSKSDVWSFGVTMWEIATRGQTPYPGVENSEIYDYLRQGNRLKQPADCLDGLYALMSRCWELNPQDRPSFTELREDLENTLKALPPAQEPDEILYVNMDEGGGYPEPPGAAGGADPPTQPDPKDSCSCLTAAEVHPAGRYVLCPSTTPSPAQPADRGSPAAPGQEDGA
Method: The affinity of several compounds hereof having a substituent on the imidazo[1,2-b]pyridazine moiety at position-6, wherein the substituent comprised one or more ring moieties was evaluated with respect to two TAM kinases: AXL and MERTK. […] The assay uses DNA-tagged kinase, an immobilized ligand, and the test compound. Quantitative polymerase chain reaction (PCR) of the DNT tag was then used to measure the ability of the tested compound to displace the immobilized ligand.

[2] = system: 4T1 (breast) syngeneic tumor; test: 4T1 in vivo tumor reduction; design: species or system Female Balb-C mice; settings: 15 mg/kg orally QD, 5 days on 2 days off
Method: 0.5×10^6 4T1 cells were injected subcutaneously (SQ) into the right flank of Female Balb-C mice. Each group consisted of 5 tumor-bearing mice. 7 days after tumor implantation, mice were dosed orally QD with vehicle control (5% DMSO, 40% PEG300, 5% tween 80, 50% water) or HSND80 (15 mg/Kg). Mice were dosed 5 days on and 2 days off (drug holiday). Tumors were measured every other day (L, W, H) to give tumor volume in mm^3.

Kd ([1]; FIG. 6A, replicate 1, read-out: Kd AXL, replicate 1): 0.77 nM | Kd ([1]; FIG. 6B, replicate 2, read-out: Kd AXL, replicate 2): 1.3 nM | Kd ([1]; Table 1, DiscoverX Eurofins, read-out: Kd AXL): 1.1 nM
SMILES: C[C@@H]1CN(c2ccc3ncc(C#Cc4cncc(C(=O)Nc5ccc(CN6CCN(C)CC6)c(C(F)(F)F)c5)c4)n3n2)C[C@H](C)O1 [HSND80, 5-((6-((2S,6R)-2,6-Dimethylmorpholino)imidazo[1,2-b]pyridazin-3-yl)ethynyl)-N-(4-((4-methylpiperazin-1-yl)methyl)-3-(trifluoromethyl)phenyl)nicotinamide]
reduction of growth of 4T1 tumor [2]: ~60%
